In ChEMBL document CHEMBL3085709, “Modulators of the Sphingosine 1-phosphate receptor 1” (Bioorg Med Chem Lett, 2013):
Blank lines part the entries; values can stand above or below the compound they belong to.

Columns and labels:
[1] = Half life of the compound; format: physicochemical
Rattus norvegicus [2] = experiment: Immunomodulatory activity in rat assessed as decrease in peripheral blood lymphocyte count at 100 mg/kg, po after 12 hrs; format: functional; design: scale not given: the % may be the effect or the level left
Mus musculus = experiment: Immunomodulatory activity in po dosed mouse assessed as decrease in peripheral blood lymphocyte count after 3 hrs; format: functional
Rattus norvegicus [3] = experiment: Immunomodulatory activity in rat assessed as decrease in peripheral blood lymphocyte count at 50 mg/kg, po after 1 to 8 hrs; format: functional; design: scale not given: the % may be the effect or the level left
[4] = target: T1, Sphingosine 1-phosphate receptor 5 (Homo sapiens, UniProt Q9H228); experiment: Inhibition of S1P5 receptor (unknown origin)
[5] = target: T2, Sphingosine 1-phosphate receptor 4 (Homo sapiens, UniProt O95977); experiment: Inhibition of S1P4 receptor (unknown origin)
T2 sequence (O95977 whole entry): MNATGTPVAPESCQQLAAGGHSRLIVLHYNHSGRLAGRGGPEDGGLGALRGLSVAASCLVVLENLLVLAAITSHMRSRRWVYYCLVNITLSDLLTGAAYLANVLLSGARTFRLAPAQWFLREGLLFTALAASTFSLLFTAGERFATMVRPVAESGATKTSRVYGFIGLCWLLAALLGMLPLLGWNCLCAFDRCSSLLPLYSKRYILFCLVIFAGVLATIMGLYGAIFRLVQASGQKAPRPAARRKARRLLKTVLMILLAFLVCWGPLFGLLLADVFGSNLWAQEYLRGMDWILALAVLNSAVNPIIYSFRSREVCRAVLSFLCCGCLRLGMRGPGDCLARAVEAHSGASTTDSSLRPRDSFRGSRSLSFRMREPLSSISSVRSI

[6] = target: T3, Sphingosine 1-phosphate receptor 3 (Homo sapiens, UniProt Q99500); experiment: Inhibition of S1P3 receptor (unknown origin)
[7] = target: Sphingosine 1-phosphate receptor 1 (Homo sapiens, UniProt P21453); experiment: Antagonist activity at human S1P1 receptor expressed in HEK293 cells assessed as inhibition of S1P-induced decrease in cAMP formation by [35S]GTPgammaS binding assay; format: functional, cell-based
Rattus norvegicus [8] = experiment: Immunomodulatory activity in rat assessed as decrease in peripheral blood lymphocyte count at 30 mg/kg, po after 48 hrs; format: functional; design: scale not given: the % may be the effect or the level left
Rattus norvegicus [9] = experiment: Immunomodulatory activity in rat assessed as decrease in peripheral blood lymphocyte count at 30 mg/kg, po after 14 to 24 hrs; format: functional; design: scale not given: the % may be the effect or the level left
[10] = target: T1, Sphingosine 1-phosphate receptor 5; experiment: Antagonist activity at human S1P5 receptor expressed in CHO cells after 120 mins by [35S]GTPgammaS binding assay; format: functional, cell-based
[11] = target: T2, Sphingosine 1-phosphate receptor 4; experiment: Antagonist activity at human S1P4 receptor expressed in CHO cells assessed as inhibition of agonist-induced calcium mobilization preincubated for 20 mins by Fluo-4/FLIPR method; format: functional, cell-based
[12] = target: T3, Sphingosine 1-phosphate receptor 3; experiment: Antagonist activity at human S1P3 receptor expressed in CHO cells assessed as inhibition of agonist-induced calcium mobilization preincubated for 20 mins by Fluo-4/FLIPR method; format: functional, cell-based
[13] = target: Sphingosine 1-phosphate receptor 2 (Homo sapiens, UniProt O95136); experiment: Antagonist activity at human S1P2 receptor expressed in CHO cells assessed as inhibition of agonist-induced calcium mobilization preincubated for 20 mins by Fluo-4/FLIPR method; format: functional, cell-based
[14] = target: T2, Sphingosine 1-phosphate receptor 4; experiment: Agonist activity at S1P4 receptor (unknown origin)
[15] = Half life in human; format: ADME, organism-based; conditions: in vivo
Homo sapiens [16] = experiment: Immunomodulatory activity in multiple sclerosis patient assessed as decrease in peripheral blood lymphocyte count at 5 mg/kg, po; format: functional; design: scale not given: the % may be the effect or the level left
Homo sapiens [17] = experiment: Immunomodulatory activity in multiple sclerosis patient assessed as decrease in peripheral blood lymphocyte count at 1.25 mg/kg, po; format: functional; design: scale not given: the % may be the effect or the level left
[18] = target: T1, Sphingosine 1-phosphate receptor 5; experiment: Agonist activity at S1P5 receptor (unknown origin)
[19] = target: T3, Sphingosine 1-phosphate receptor 3; experiment: Agonist activity at S1P3 receptor (unknown origin)
[20] = target: T1, Sphingosine 1-phosphate receptor 5; experiment: Agonist activity at human S1P5 receptor expressed in CHO cells by [35S]GTPgammaS binding assay; format: functional, cell-based
[21] = target: T2, Sphingosine 1-phosphate receptor 4; experiment: Agonist activity at human S1P4 receptor expressed in CHO cells by [35S]GTPgammaS binding assay; format: functional, cell-based

T3 sequence (Q99500 whole entry): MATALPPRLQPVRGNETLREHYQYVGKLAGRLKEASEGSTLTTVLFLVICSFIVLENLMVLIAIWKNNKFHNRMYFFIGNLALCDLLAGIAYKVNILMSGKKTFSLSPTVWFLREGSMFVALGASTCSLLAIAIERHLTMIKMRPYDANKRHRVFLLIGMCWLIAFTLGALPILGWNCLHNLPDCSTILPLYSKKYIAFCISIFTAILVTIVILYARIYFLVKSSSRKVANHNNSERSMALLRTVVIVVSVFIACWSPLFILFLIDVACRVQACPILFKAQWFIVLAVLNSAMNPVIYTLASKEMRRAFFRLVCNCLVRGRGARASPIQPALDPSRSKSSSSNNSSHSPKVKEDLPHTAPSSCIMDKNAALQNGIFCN
T1 sequence (Q9H228 whole entry): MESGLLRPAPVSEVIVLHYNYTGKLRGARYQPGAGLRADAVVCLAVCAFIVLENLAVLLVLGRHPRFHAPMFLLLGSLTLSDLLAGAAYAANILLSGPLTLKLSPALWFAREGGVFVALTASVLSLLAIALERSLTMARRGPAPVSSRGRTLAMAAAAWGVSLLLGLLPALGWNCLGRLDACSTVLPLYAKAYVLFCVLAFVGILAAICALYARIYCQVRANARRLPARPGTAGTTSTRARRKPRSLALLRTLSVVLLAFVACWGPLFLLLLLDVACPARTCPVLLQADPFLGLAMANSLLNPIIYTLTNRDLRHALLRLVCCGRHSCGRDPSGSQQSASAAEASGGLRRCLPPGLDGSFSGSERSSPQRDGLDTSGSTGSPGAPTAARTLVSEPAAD
Sequence of Sphingosine 1-phosphate receptor 1 (P21453 whole entry): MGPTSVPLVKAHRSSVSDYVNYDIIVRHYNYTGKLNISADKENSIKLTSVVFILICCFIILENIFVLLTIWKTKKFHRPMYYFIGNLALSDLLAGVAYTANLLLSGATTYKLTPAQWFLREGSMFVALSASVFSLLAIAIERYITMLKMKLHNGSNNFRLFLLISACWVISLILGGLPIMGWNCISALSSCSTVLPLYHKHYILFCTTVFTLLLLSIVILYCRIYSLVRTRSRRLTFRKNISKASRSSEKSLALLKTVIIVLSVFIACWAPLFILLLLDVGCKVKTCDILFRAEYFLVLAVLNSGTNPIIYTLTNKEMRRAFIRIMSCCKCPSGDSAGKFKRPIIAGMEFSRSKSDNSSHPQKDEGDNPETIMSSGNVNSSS
Sequence of Sphingosine 1-phosphate receptor 2 (O95136 whole entry): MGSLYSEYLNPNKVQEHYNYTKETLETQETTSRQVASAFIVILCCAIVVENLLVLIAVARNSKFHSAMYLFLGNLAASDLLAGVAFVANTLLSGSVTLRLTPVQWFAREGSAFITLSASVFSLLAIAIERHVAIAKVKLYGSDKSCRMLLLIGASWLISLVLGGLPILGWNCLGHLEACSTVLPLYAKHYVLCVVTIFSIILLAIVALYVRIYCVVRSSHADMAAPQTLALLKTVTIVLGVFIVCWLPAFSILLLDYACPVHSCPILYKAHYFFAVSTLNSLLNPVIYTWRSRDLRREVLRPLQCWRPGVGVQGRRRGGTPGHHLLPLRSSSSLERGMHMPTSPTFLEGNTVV

Ki [4]: > 10 µM
Ki [5]: > 10 µM
Ki [6]: 4.88 µM
IC50 [7]: 0.383 µM
Ki [7]: 0.249 µM
Compound: CCn1c(OC)nnc1[C@@H](C)NS(=O)(=O)c1ccc(F)c(Cl)c1
Activity (Rattus norvegicus [3]): >70%

IC50 [10]: > 10 µM
IC50 [11]: > 10 µM
IC50 [12]: > 10 µM
IC50 [13]: > 10 µM
EC50 [14]: 0.245 µM
Compound: Cc1cc([C@@H](C)Nc2cccc(-c3cc(C)c(C(=O)N[C@@H](C)C(=O)O)c(C)c3)c2)ccc1Cl
Activity (Rattus norvegicus [8]): 60%
Activity (Rattus norvegicus [9]): 75%

half-life [15]: 216 h
EC50 [18]: 0.0003 µM
EC50 [14]: 0.0003 µM
EC50 [19]: 0.003 µM
Compound: CCCCCCCCc1ccc(CCC(N)(CO)CO)cc1 [FINGOLIMOD]
Activity (Homo sapiens [16]): 20%
Activity (Homo sapiens [17]): 20%

half-life [1]: 30 h
Compound: CCC/N=C1\S/C(=C\c2ccc(OC[C@H](O)CO)c(Cl)c2)C(=O)N1c1ccccc1C [PONESIMOD]

half-life [15]: 30 h
EC50 [20]: 0.00098 µM
EC50 [21]: 0.75 µM
Compound: CCc1cc(/C(C)=N/OCc2ccc(C3CCCCC3)c(C(F)(F)F)c2)ccc1CN1CC(C(=O)O)C1 [SIPONIMOD]

Continued, compound first:

Compound: Cc1ccc(CCCC(=O)c2ccc(CC[C@@](C)(N)CO)n2C)cc1
half-life [1]: 168 h

Compound: Cc1cc(S(=O)(=O)Nc2cccc(-c3cc(C)c(C(=O)N[C@@H](C)C(=O)O)c(C)c3)c2)c(C)cc1Cl
Activity (Rattus norvegicus [2]): 75%

Compound: O=C(O)C1CN(Cc2ccc(-c3noc(-c4cc(-c5ccccc5)c(C(F)(F)F)s4)n3)cc2)C1
ED50 (Mus musculus): 0.07 mg/kg
